# In patent US20240391931A1 (Bristol-Myers Squibb Company, priority 2021, published 2024):
# How the values were obtained:
# [1] = molecular target: T1, HER2 (Homo sapiens, UniProt P04626); assay: HER2 occupancy assay in N87 cells; format: cell-based; details: concentration at which 50% of HER2 is irreversible bound, read-out: N87 HER2 Occ
# T1 construct: BT474 and N87 cell lines which endogenously overexpress the HER2 wildtype (WT) protein; endogenous in cells; host or cells: BT474, N87
# Description: In order to assess free HER2 protein, a biotinylated probe was utilized. BT474, N87, and Ba/F3-HER2YVMA cells were treated with test compound as described for HER2 signaling. After compound treatment, cells were washed three times with cold phosphate buffer saline (PBS, Life Technologies, Carlsbad, CA), and lysed in modified occupancy lysis buffer prepared with an irreversible biotinylated tool compound (1 μM) in 25 mM Tris pH 7.5, 150 mM NaCl, 1% Triton, and supplemented with cOmplete, EDTA-free Protease inhibitor cocktail (Roche), Phosphatase Inhibitor Cocktails 2 and 3 (Sigma-Aldrich), and 1 mM PMSF (Sigma-Aldrich).
# To determine % occupancy, lysates were loaded into duplicate plates of the phospho (Tyr1248)/total ErbB2 whole cell lysate MSD kit (Meso-Scale Discovery) and incubated overnight. Plates were washed and incubation with either HER2-sulfoTag (1:50, Meso Scale Discovery) or Strep-Sulfo Tag (1:1000, Meso Scale Discovery), for detection of […]. A standard curve of untreated cells in serial dilution was included in each plate to independently fit streptavidin (Free HER2) and total HER2 MSD signals; non-specific signal (BSA control spots) was subtracted from each well. Free HER2 was then normalized by total HER2 for each sample. The results are reported as % DMSO control. The normalized data was fitted using a sigmoidal curve analysis program (Graph Pad Prism version 6) with variable Hill slope to determine EC50 values. The results are provided in Table 4, under columns titled “BT474-HER2 Occ”, “N87-HER2 Occ”, and “Ba/F3 YVMA-HER2 Occ”. HER2 Occ is the concentration of test compound at which 50% of HER2 is irreversible bound.
# [2] = molecular target: EGFR (Homo sapiens, UniProt P00533); assay: EGFR occupancy in N87 cells; format: cell-based; parameters: endogenous in cells; host or cells: N87; details: N87 cells; concentration at which 50% of EGFR is irreversible bound; read-out: N87 EGFR Occ
# EGFR, sequence (P00533 25-1210): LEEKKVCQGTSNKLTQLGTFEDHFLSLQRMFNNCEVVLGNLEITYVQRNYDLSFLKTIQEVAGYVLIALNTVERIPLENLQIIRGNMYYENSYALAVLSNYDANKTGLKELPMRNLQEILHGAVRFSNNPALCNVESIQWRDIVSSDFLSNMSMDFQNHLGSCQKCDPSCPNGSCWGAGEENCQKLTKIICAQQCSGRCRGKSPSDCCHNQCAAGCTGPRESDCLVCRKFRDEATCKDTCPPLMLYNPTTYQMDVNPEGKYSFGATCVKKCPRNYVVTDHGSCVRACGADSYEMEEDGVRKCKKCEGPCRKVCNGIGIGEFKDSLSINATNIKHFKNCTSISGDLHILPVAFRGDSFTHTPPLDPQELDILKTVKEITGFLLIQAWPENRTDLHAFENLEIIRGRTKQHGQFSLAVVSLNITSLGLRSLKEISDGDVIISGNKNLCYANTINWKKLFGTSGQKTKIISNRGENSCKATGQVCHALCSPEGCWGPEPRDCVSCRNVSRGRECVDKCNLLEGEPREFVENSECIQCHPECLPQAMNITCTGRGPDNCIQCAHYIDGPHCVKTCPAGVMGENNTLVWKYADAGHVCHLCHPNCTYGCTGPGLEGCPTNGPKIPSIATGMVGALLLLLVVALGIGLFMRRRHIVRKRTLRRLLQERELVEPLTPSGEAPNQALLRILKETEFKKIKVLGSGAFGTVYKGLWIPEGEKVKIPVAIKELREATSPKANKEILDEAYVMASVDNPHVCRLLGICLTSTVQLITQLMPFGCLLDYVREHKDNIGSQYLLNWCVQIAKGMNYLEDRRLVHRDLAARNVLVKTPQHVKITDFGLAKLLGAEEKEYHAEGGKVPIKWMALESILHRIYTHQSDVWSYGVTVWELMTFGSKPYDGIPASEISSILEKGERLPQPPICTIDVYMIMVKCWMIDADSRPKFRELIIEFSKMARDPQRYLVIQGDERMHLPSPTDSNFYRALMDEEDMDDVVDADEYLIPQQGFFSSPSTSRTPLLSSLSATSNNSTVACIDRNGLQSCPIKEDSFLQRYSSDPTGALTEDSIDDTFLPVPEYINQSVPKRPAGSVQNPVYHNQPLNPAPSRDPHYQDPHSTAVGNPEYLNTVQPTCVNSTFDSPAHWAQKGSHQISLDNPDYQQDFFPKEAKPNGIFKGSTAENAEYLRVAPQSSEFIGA
# Description: In order to assess free EGFR protein, a biotinylated probe was utilized as described for HER2 occupancy. N87 cells were plated, treated, and lysed as described for HER2 occupancy method. After treatment, the cells were washed three times with cold PBS, lysed at room temperature for 1 hr in modified occupancy lysis buffer (prepared as described in section titled “HER2 Occupancy Assay”). Lysates were stored at −70° C. until further analysis. For determination of % occupancy, lysates were loaded into duplicate plates of the phospho (Tyr 1068)/total EGFR whole cell lysate kit (Meso-Scale Discovery) and incubated overnight. Plates were washed and incubated with either EGFR-sulfoTag (1:50, Meso Scale Discovery) or Strep-Sulfo Tag (1:1000, Meso Scale Discovery), for detection of free and total EGFR, respectively. BSA control spots included in MSD plates were used to subtract non-specific signal. A standard curve of untreated cells in serial dilution was included in each plate to convert streptavidin and total EGFR MSD signals into free EGFR and total EGFR. Free EGFR was normalized to total EGFR for each sample. Data, reported as % […] control, was fitted using a sigmoidal curve analysis program (Graph Pad Prism version 6) with variable Hill slope to determine EC50 values. The results are provided in Table 4, under column titled “N87-EGFR Occ”. EGFR Occ is the concentration of test compound at which 50% of EGFR is irreversible bound.
# T1 sequence (P04626 23-1255): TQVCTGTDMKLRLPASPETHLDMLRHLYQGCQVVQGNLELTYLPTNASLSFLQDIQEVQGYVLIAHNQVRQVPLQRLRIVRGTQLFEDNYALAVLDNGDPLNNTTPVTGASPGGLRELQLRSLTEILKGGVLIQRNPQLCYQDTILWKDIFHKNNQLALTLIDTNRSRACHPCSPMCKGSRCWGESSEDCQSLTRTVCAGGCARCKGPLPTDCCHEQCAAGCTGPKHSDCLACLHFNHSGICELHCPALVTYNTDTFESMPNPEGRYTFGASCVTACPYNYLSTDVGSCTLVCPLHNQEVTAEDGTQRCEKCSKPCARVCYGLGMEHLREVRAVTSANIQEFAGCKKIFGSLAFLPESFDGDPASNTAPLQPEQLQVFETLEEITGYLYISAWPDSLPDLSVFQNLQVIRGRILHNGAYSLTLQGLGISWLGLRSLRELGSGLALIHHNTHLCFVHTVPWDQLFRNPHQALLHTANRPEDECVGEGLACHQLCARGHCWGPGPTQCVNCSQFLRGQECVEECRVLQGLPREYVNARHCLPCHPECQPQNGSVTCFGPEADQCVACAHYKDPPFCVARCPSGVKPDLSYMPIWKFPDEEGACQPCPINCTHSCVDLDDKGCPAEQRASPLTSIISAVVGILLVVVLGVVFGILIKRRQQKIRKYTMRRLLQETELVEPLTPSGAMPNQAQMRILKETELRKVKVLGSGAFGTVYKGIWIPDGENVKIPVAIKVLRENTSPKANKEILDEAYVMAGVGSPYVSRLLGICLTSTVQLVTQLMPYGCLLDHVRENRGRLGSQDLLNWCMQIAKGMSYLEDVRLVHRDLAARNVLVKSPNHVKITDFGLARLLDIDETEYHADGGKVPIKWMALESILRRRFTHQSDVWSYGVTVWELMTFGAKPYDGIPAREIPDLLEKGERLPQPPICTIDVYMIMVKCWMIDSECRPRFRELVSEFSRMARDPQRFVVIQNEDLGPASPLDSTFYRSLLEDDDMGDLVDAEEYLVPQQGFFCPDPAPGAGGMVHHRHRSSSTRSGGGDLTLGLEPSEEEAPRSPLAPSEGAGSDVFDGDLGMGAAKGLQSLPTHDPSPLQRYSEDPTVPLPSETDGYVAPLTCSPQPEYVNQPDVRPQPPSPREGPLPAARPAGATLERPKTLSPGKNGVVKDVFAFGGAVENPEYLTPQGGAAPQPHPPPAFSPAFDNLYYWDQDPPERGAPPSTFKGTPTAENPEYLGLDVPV
EC50 [1] [µM],EC50 [2] [µM],SMILES
< 0.1,–,"CN(C)C/C=C/C(=O)N1CCc2c(sc3ncnc(Nc4ccc(Oc5ccc6ncnn6c5)c(Cl)c4)c23)C1 [Compound 5, (E)-1-(4-((4-([1,2,4]triazolo[1,5-a]pyridin-6-yloxy)-3-chlorophenyl)amino)-5,8-dihydropyrido[4′,3′:4,5]thieno[2,3-d]pyrimidin-7(6H)-yl)-4-(dimethylamino)but-2-en-1-one]"
< 0.1,0.1 to 0.35,"COc1ccc(Oc2ccc(Nc3ncnc4sc5c(c34)CCN(C(=O)/C=C/CN(C)C)C5)cc2C)cn1 [Compound 95, (E)-4-(Dimethylamino)-1-(4-((4-((6-methoxypyridin-3-yl)oxy)-3-methylphenyl)amino)-5,6-dihydropyrido[4′,3′:4,5]thieno[2,3-d]pyrimidin-7(8H)-yl)but-2-en-1-one]"
